Experimental data taken from patent US20250353825A1, “CANNABICYCLOL DERIVATIVES AND PREPARATION METHODS THEREOF” (priority 2023, published 2025).
In brackets after ≈: the same amount, converted by molar mass. Where two headings read alike, the source gives them in different places.

What was measured:
Type in all cases: cell-based
[1] = MTS cell viability assay, HEK-293T (293T) normal cells; details: human
Experimental: (§1) Primary viability screening: (1) the synthesized compounds 3a to 13d were respectively dissolved in DMSO to prepare a 40 μg/mL cannabicyclol and cannabicyclol derivative solutions.
(§2) (2) A control group: a 200 μL DMSO solvent.
(§3) (3) The solutions of compounds 3a to 13d were diluted in a twofold gradient to obtain cannabicyclol and cannabicyclol derivative solutions at concentrations of 40 μg/mL, 20 μg/mL, 10 μg/mL, 5 μg/mL, 2.5 μg/mL, 1.25 μg/mL, and 0.625 μg/mL, and 0.3125 μg/mL, respectively.
(§4) (4) Three glioblastoma stem cells (GSC-3, GSC-12, and GSC-18), three pancreatic cancer cell-derived stem cells (PANC-1-CSC, BXPC-3-CSC, and ASPC1-CSC), three liver cancer cell-derived stem cells (HepG2-CSC, MHCC97H-CSC, and SMMC7721-CSC), HEK-293T cells, 16 tumor cells (U251, U87, T98G, PANC1, BXPC3, ASPC1, HepG2, MHCC97H, SMMC7721, PC3, SKOV3, MDA-MB231, A549, HCT116, HEC-1B, MKN28), and differentiated glioblastoma stem cells (GSC-3diff and GSC-12diff) derived from GSC-3 and GSC-12 (all of the cells were provided by the Laboratory of Tumor Animal Model Preparation and Application Research, West China Hospital, Sichuan University) were inoculated into a 96-well plate at a concentration of 2×10^4 cells/well, and 100 μL of culture medium was then added to each well;
(§5) (5) 2) HEK-293T, GSC-3diff, GSC-12diff, and the 16 tumor cells were added with DMEM, 10% FBS, and 1% double antibody culture medium. Cancer stem cells (CSCs) were added with serum-free stem cell medium consisting of DMEM/F12, EGF (20 ng/mL), bFGF (20 ng/mL), B27 (1×), and 1% double antibody culture medium.
(§6) (6) Inoculated cells were put into a cell culture incubator for 24 hours, and after the cells were well adhered to the wall, the culture medium in the 96-well plate was discarded.
(§7) (7) 200 μL cannabicyclol and cannabicyclol derivatives solutions at different concentrations were added to the cultured cells.
(§8) (8) The experiment was set up with 3 replicates.
(§9) (9) The 96-well plate was placed in a cell culture incubator, and incubation was continued at 37° C. and 5% CO2 for 72 hours. Then, 100 μL of cannabicyclol and cannabicyclol derivative solution per well was discarded (100 μL of DMSO solvent was discarded for the control group), and 20 μL of LMTS (CellTiter AQueous Non-Radioactive Cell Proliferation Assay, #G3581) was mixed and continued to be placed in the cell incubator for 2 hours of incubation.
(§10) (10) The absorbance value at 490 nm was measured on an enzyme labeling apparatus, and the IC50 value was calculated.

HEK-293T = test: as above; details: Homo sapiens, HEK-293T; Table 8, normal cells, preferred compounds; read-out: IC50 293T
Experimental: as §1, §2, §3, §4, §5, §6, §7, §8, §9, §10

U251 = test: MTS cell viability assay, U251; details: for IC50: Homo sapiens, U-251, Table 8, tumor cells, preferred compounds, read-out: IC50 U251
Experimental: as §1, §2, §3, §4, §5, §6, §7, §8, §9, §10

GSC-3 (3#-GSC) = test: MTS cell viability assay, glioblastoma stem cells GSC-3 (3#-GSC); details: for IC50: GSC-3, Table 8, cancer stem cells, preferred compounds, read-out: IC50 3#-GSC; for selective anti-glioma stem cell viability: judged in words from preliminary viability screening against 3#-GSC, 293T and U251
Experimental: as §1, §2, §3, §4, §5, §6, §7, §8, §9, §10

[2] = HEK-293T (293T) normal cells, primary viability screening, 72 hours, MTS, test concentration not stated, read-out: Cell viability in 293T (%)
[3] = primary viability screening, 72 hours, MTS, test concentration not stated

| Structure (SMILES) | viability at 72 h [1] [%] | IC50 (HEK-293T) [mg/L] | IC50 (U251) [mg/L] | Cell viability in U251 (%) (U251; human, 72 h) | Cell viability in 3#-GSC (%) (GSC-3 (3#-GSC); 72 h) | IC50 (GSC-3 (3#-GSC)) [mg/L] | selective anti-glioma stem cell viability (GSC-3 (3#-GSC)) | viability at 72 h [1, 2] [%] | Cell viability in U251 (%) (U251; [3]) | Cell viability in 3#-GSC (%) (GSC-3 (3#-GSC); [3]) |
| --- | --- | --- | --- | --- | --- | --- | --- | --- | --- | --- |
| CC12CCC3C1C(c1c(O)cc(-c4ccsc4)cc1O2)C3(C)C (stereo not drawn) [Compound 3t] | ≥ 100 | 16.4 (≈ 50.2 µM) | 14 (≈ 42.8 µM) | 98 | 50 | 3 (≈ 9.17 µM) | weak selective anti-glioma stem cell viability |  |  |  |
| CCCCCc1cc(OC(=O)C(C)CC)c2c(c1)OC1(C)CCC3C1C2C3(C)C (stereo not drawn) [Compound 9a] |  | > 40 | > 40 |  |  | 4.32 (≈ 10.8 µM) |  | ≥ 100 | ≥100 | 52 |
| CCCCCc1cc(OC(=O)CC)c2c(c1)OC1(C)CCC3C1C2C3(C)C (stereo not drawn) [Compound 9c] |  | > 40 | 24.7 (≈ 66.7 µM) |  |  | 9.32 (≈ 25.2 µM) | both the viability and selectivity were maintained | ≥ 100 | ≥100 | 28 |
| CCCCCc1cc(OC(=O)CN2CCOCC2)c2c(c1)OC1(C)CCC3C1C2C3(C)C (stereo not drawn) [Compound 9k] |  | > 40 | > 40 |  |  | 5.37 (≈ 12.2 µM) |  | ≥ 100 | ≥100 | 43 |
| CCCCCc1cc(OC(=O)CCN2CCOCC2)c2c(c1)OC1(C)CCC3C1C2C3(C)C (stereo not drawn) [Compound 9l] |  | > 40 | 24.7 (≈ 54.3 µM) |  |  | 2.9 (≈ 6.37 µM) |  | 93 | 90 | 32 |
| CCCCCc1cc(OC(=O)CN(C)C)c2c(c1)OC1(C)CCC3C1C2C3(C)C (stereo not drawn) [Compound 9m] |  | 22.9 (≈ 57.2 µM) | > 40 |  |  | 5.44 (≈ 13.6 µM) |  | ≥ 100 | ≥100 | 42 |
| CCCCCc1cc(OC(=O)CCN(C)C)c2c(c1)OC1(C)CCC3C1C2C3(C)C (stereo not drawn) [Compound 9n] |  | 35.2 (≈ 85 µM) | 33.4 (≈ 80.9 µM) |  |  | 7.79 (≈ 18.8 µM) |  | ≥ 100 | 89 | 32 |
| CCCCCc1cc2c(c(-c3ccccc3)c1)C1C3C(CCC3(C)O2)C1(C)C (stereo not drawn) [Compound 13b] | 75 | > 40 | > 40 | ≥100 | 50 | 4.73 (≈ 12.6 µM) | both the viability and selectivity were significantly reduced |  |  |  |
